Experimental data from patent US10787450B2 (BRISTOL-MYERS SQUIBB COMPANY, priority 2016, dated 2020).
Structures can show the parent of a compound that is named as a salt.

Target: ROCK2 (Homo sapiens (Human), UniProt O75116)
Test: ROCK2 kinase inhibition assay (FITC peptide substrate, LABCHIP 3000 Reader)
Type: biochemical
Settings: 5 μM ATP, 1.5 μM peptide substrate
How it was run: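 Reaction in 20 mM HEPES pH 7.5, 20 mM MgCl2, 0.015% Brij-35, 4 mM DTT with 5 μM ATP and 1.5 μM FITC-AHA-AKRRRLSSLRA-OH peptide, started with Rho kinase, DMSO <2%. EDTA-stopped; phospho and non-phospho peptide separated by mobility shift. IC50 from dose-response curve fit.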

ROCK2, sequence (O75116 whole entry, species assumed): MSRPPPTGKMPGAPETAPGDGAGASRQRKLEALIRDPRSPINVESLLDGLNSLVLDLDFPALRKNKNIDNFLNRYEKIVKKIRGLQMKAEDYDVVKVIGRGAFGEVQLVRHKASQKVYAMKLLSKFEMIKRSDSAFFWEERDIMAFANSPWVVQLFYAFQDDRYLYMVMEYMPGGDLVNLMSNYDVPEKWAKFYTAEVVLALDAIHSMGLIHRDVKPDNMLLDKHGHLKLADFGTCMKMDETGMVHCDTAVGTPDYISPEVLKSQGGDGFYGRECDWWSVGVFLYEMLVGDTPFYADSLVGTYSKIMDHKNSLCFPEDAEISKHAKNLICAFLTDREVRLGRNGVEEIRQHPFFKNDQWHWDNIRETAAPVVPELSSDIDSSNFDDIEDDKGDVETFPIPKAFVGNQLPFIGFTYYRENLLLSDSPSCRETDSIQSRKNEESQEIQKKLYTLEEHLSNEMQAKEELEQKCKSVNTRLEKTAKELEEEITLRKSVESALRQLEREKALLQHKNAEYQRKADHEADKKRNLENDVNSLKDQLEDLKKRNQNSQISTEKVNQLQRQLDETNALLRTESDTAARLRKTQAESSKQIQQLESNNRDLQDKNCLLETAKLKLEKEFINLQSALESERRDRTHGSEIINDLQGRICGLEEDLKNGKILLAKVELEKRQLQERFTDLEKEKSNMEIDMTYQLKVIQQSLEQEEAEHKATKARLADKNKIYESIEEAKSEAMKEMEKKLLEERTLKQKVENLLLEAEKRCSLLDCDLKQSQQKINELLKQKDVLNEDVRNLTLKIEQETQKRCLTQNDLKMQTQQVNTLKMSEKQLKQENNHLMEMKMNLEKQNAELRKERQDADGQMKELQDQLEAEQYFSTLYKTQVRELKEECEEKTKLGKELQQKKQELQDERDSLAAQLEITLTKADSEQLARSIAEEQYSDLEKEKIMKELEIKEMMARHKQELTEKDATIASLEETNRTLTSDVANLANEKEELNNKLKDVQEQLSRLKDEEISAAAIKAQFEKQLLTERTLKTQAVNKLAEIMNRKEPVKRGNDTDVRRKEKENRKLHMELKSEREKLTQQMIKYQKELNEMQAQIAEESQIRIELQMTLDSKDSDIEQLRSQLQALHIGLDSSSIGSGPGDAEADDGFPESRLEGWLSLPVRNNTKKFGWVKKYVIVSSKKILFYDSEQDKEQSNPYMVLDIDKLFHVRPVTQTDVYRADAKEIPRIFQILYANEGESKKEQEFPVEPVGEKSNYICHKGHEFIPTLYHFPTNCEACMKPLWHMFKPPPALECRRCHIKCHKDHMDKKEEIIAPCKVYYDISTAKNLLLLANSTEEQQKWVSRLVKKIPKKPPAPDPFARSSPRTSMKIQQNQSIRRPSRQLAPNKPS

SMILES | IC50 [nM]
CCc1nc(N2CC3(CCN(CC(F)F)CC3)N(Cc3cc(F)cc(OC)c3)C2=O)ccc1-c1cn[nH]c1 [Example 129, 8-(2,2-difluoroethyl)-3-(6-ethyl-5-(1H-pyrazol-4-yl)pyridin-2-yl)-1-(3-fluoro-5-methoxybenzyl)-1,3,8-triazaspiro[4.5]decan-2-one] | 3 to 30
COc1cc(CN2C(=O)N(c3ccc(-c4cn[nH]c4)cc3)CC23CCNCC3)ccc1F [Example 59, 3-(4-(1H-pyrazol-4-yl)phenyl)-1-(4-fluoro-3-methoxybenzyl)-1,3,8-triazaspiro[4.5]decan-2-one] | < 3
COc1cccc(CN2C(=O)N(c3ccc(-c4cn[nH]c4)cc3)CC23CCN(CC(O)CO)CC3)c1 (centres unmarked) [Example 120, 3-(4-(1H-pyrazol-4-yl)phenyl)-8-(2,3-dihydroxypropyl)-1-(3-methoxybenzyl)-1,3,8-triazaspiro[4.5]decan-2-one] | < 3
COc1cc(F)cc(CN2C(=O)N(c3ccc(-c4cn[nH]c4)cc3)CC23CCN(CCO)CC3)c1 [Example 144, 3-(4-(1H-pyrazol-4-yl)phenyl)-1-(3-fluoro-5-methoxybenzyl)-8-(2-hydroxyethyl)-1,3,8-triazaspiro[4.5]decan-2-one] | < 3
CC(=O)N1CCC2(CC1)CN(c1ccc(-c3cn[nH]c3)cc1)C(=O)N2Cc1ccc(F)cc1C [Example 80, 3-(4-(1H-pyrazol-4-yl)phenyl)-8-acetyl-1-(4-fluoro-2-methylbenzyl)-1,3,8-triazaspiro[4.5]decan-2-one] | 3 to 30
CNC(=O)c1cccc(CN2C(=O)N(c3ccc(-c4cn[nH]c4)cc3)CC23CCOCC3)c1 [Example 31, 3-((3-(4-(1H-pyrazol-4-yl)phenyl)-2-oxo-8-oxa-1,3-diazaspiro[4.5]decan-1-yl)methyl)-N-methylbenzamide] | 30 to 250
NC(=O)c1cccc(CN2C(=O)N(c3ccc(-c4cn[nH]c4)cc3)CC23CCOCC3)c1 [Example 32, 3-((3-(4-(1H-pyrazol-4-yl)phenyl)-2-oxo-8-oxa-1,3-diazaspiro[4.5]decan-1-yl)methyl)benzamide] | 30 to 250
COc1cccc(NC2C(=O)N(c3ccc(-c4cn[nH]c4)cc3)CC23CCN(C(=O)CO)CC3)c1 (centres unmarked) [Example 250, 2-(4-(1H-pyrazol-4-yl)phenyl)-8-(2-hydroxy-acetyl)-4-((3-methoxy-phenyl)amino)-2,8-diazaspiro [4.5]decan-3-one] | 250 to 3000
COCCN1CCC2(CC1)CN(c1ccc(-c3cn[nH]c3)cc1)C(=O)N2Cc1cccc(OC)c1 [Example 142, 3-(4-(1H-pyrazol-4-yl)phenyl)-1-(3-methoxybenzyl)-8-(2-methoxyethyl)-1,3,8-triazaspiro[4.5]decan-2-one] | 3 to 30
O=C(NCCO)c1cccc(CN2C(=O)N(c3ccc(-c4cn[nH]c4)cc3)CC23CCOCC3)c1 [Example 36, 3-((3-(4-(1H-pyrazol-4-yl)phenyl)-2-oxo-8-oxa-1,3-diazaspiro[4.5]decan-1-yl)methyl)-N-(2-hydroxyethyl)benzamide] | < 3
O=C1N(c2ccc(-c3cn[nH]c3)cc2)CC2(CC2)N1Cc1cccc(OCC2CC2)c1 [Example 7, 6-(4-(1H-pyrazol-4-yl)phenyl)-4-(3-(cycloproylmethoxy)benzyl)-4,6-diazaspiro[2.4]heptan-5-one] | 3 to 30
O=C1N(c2ccc(-c3cn[nH]c3)cc2)CC2(CCNCC2)N1Cc1cccc(O)c1 [Example 62, 3-(4-(1H-pyrazol-4-yl)phenyl)-1-(3-hydroxybenzyl)-1,3,8-triazaspiro[4.5]decan-2-one] | < 3
CC1(NC(=O)c2cccc(CN3C(=O)N(c4ccc(-c5cn[nH]c5)cc4)CC34CCOCC4)c2)CC1 [Example 39, 3-((3-(4-(1H-pyrazol-4-yl)phenyl)-2-oxo-8-oxa-1,3-diazaspiro[4.5]decan-1-yl)methyl)-N-(1-methylcyclopropyl)benzamide] | 3 to 30
O=C1N(c2ccc(-c3cn[nH]c3)cc2)CC2(CCOCC2)N1Cc1ccc(F)cc1F [Example 22, 3-(4-(1H-pyrazol-4-yl)phenyl)-1-(2,4-difluorobenzyl)-8-oxa-1,3-diazaspiro[4.5]decan-2-one] | 30 to 250
COc1cc(CN2C(=O)N(c3ccc(-c4cn[nH]c4)cc3)CC23CC3)ccc1F [Example 6, 6-(4-(1H-pyrazol-4-yl)phenyl)-4-(4-fluoro-3-methoxybenzyl)-4,6-diazaspiro[2.4]heptan-5-one] | < 3
COc1cccc(CN2C(=O)N(c3ccc(-c4cn[nH]c4)cc3)CC23CCN(CCC(F)(F)F)CC3)c1 [Example 121, 3-(4-(1H-pyrazol-4-yl)phenyl)-1-(3-methoxybenzyl)-8-(3,3,3-trifluoropropyl)-1,3,8-triazaspiro[4.5]decan-2-one] | < 3
COc1cccc(CN2C(=O)N(c3ccc(-c4cn[nH]c4)cc3)CC23CCN(CC2CCOC2)CC3)c1 (centres unmarked) [Example 114, 3-(4-(1H-pyrazol-4-yl)phenyl)-1-(3-methoxybenzyl)-8-((tetrahydrofuran-3-yl)methyl)-1,3,8-triazaspiro[4.5]decan-2-one] | < 3
COC(=O)N1CCC2(CC1)CN(c1ccc(-c3cn[nH]c3)cc1)C(=O)C2Nc1cccc(OC)c1 (centres unmarked) [Example 251, methyl 2-(4-(1H-pyrazol-4-yl)phenyl)-4-((3-methoxy-phenyl)amino)-3-oxo-2,8-diazaspiro [4.5]decane-8-carboxylate] | 250 to 3000
COc1cccc(C(C)N2C(=O)N(c3ccc(-c4cn[nH]c4)cc3)CC23CC3)c1 (single isomer, unassigned) [Example 3, 6-(4-(1H-pyrazol-4-yl)phenyl)-4-(1-(3-methoxyphenyl)ethyl)-4,6-diazaspiro[2.4]heptan-5-one] | 30 to 250
COc1cccc(CN2C(=O)N(c3ccc(-c4cn[nH]c4)cn3)CC23CCNCC3)c1 [Example 73, 3-(5-(1H-pyrazol-4-yl)pyridin-2-yl)-1-(3-methoxybenzyl)-1,3,8-triazaspiro[4.5]decan-2-one] | 3 to 30
COc1cccc(NC2C(=O)N(c3ncc(-c4cn[nH]c4)c(OC)n3)CC23CCN(C(=O)c2cnn4ccccc24)CC3)c1 (centres unmarked) [Example 243, 2-(4-methoxy-5-(1H-pyrazol-4-yl)pyrimidin-2-yl)-4-((3-methoxyphenyl)amino)-8-(pyrazolo[1,5-a]pyridine-3-carbonyl)-2,8-diazaspiro[4.5]decan-3-one] | 250 to 3000
COc1cccc(NC2C(=O)N(c3ccc(-c4cn[nH]c4)cn3)CC23CCN(C(=O)CCN2CCCC2=O)CC3)c1 (centres unmarked) [Example 259, 2-(5-(1H-pyrazol-4-yl)pyridin-2-yl)-4-((3-methoxy-phenyl)amino)-8-(3-(2-oxo-pyrrolidin-1-yl)pro-panoyl)-2,8-diazaspiro [4.5]decan-3-one] | 250 to 3000

Other lines, results leading:

IC50 [nM] | SMILES
< 3 | CCc1nc(N2CC3(CCN(CCO)CC3)N(Cc3cccc(F)c3C)C2=O)ccc1-c1cn[nH]c1 [Example 149, 3-(6-ethyl-5-(1H-pyrazol-4-yl)pyridin-2-yl)-1-(3-fluoro-2-methylbenzyl)-8-(2-hydroxyethyl)-1,3,8-triazaspiro[4.5]decan-2-one]
3 to 30 | COc1cccc(CN2C(=O)N(c3ncc(-c4cn[nH]c4)c(OC)n3)CC23CCN(C(=O)[C@@H]2CC2(F)F)CC3)c1 [Example 213, (S)-8-(2,2-difluorocyclopropane-carbonyl)-3-(4-methoxy-5-(1H-pyrazol-4-yl)pyrimidin-2-yl)-1-(3-methoxybenzyl)-1,3,8-triazaspiro[4.5]decan-2-one]
< 3 | COc1cccc(CN2C(=O)N(c3ccc(-c4cn[nH]c4)cc3)CC23CCN(CC(=O)N(C)C)CC3)c1 [Example 170, 2-(3-(4-(1H-pyrazol-4-yl)phenyl)-1-(3-methoxybenzyl)-2-oxo-1,3,8-triazaspiro[4.5]decan-8-yl)-N,N-dimethylacetamide]
< 3 | COc1nc(N2CC3(CCN(C(=O)C(C)(C)O)CC3)N(Cc3cccc(F)c3C)C2=O)ccc1-c1cn[nH]c1 [Example 230, 1-(3-fluoro-2-methylbenzyl)-8-(2-hydroxy-2-methylpropanoyl)-3-(6-methoxy-5-(1H-pyrazol-4-yl)pyridin-2-yl)-1,3,8-triazaspiro[4.5]decan-2-one]
< 3 | CCc1nc(N2CC3(CCNCC3)N(Cc3cccc(OC)c3)C2=O)ccc1-c1cn[nH]c1 [Example 75, 3-(6-ethyl-5-(1H-pyrazol-4-yl)pyridin-2-yl)-1-(3-methoxybenzyl)-1,3,8-triazaspiro[4.5]decan-2-one, TFA]
< 3 | COc1cccc(CN2C(=O)N(c3ccc(-c4cn[nH]c4)c(OC)n3)CC23CCN(C2COC2)CC3)c1 [Example 238, 3-(6-methoxy-5-(1H-pyrazol-4-yl)pyridin-2-yl)-1-(3-methoxy-benzyl)-8-(oxetan-3-yl)-1,3,8-triazaspiro [4.5]decan-2-one]
< 3 | CCc1nc(N2CC3(CCN(C(=O)CC(C)C)CC3)N(Cc3cccc(OC)c3)C2=O)ccc1-c1cn[nH]c1 [Example 200, 3-(6-ethyl-5-(1H-pyrazol-4-yl)pyridin-2-yl)-1-(3-methoxybenzyl)-8-(3-methylbutanoyl)-1,3,8-triazaspiro[4.5]decan-2-one]
3 to 30 | COc1cccc(CN2C(=O)N(c3ncc(-c4cn[nH]c4)c(OC)n3)CC23CCN(C(=O)C2CC(F)(F)C2)CC3)c1 [Example 209, 8-(3,3-difluorocyclo-butanecarbonyl)-3-(4-methoxy-5-(1H-pyrazol-4-yl)pyrimidin-2-yl)-1-(3-methoxybenzyl)-1,3,8-triazaspiro[4.5]decan-2-one]
30 to 250 | COc1cccc(CN2C(=O)N(c3ncc(-c4cn[nH]c4)c(OC)n3)CC23CCN(C(=O)C(C)(C)CO)CC3)c1 [Example 211, 8-(3-hydroxy-2,2-dimethylpropanoyl)-3-(4-methoxy-5-(1H-pyrazol-4-yl)pyrimidin-2-yl)-1-(3-methoxybenzyl)-1,3,8-triazaspiro[4.5] decan-2-one]
3 to 30 | COCC(=O)N1CCC2(CC1)CN(c1ccc(-c3cn[nH]c3)cn1)C(=O)N2Cc1cccc(OC)c1 [Example 197, 3-(5-(1H-pyrazol-4-yl)pyridin-2-yl)-8-(2-methoxyacetyl)-1-(3-methoxybenzyl)-1,3,8-triazaspiro[4.5]decan-2-one]
